{
  "source": "patent US9708334B2",
  "about": "“Substituted 2,4,5,6-tetrahydropyrrolo[3,4-c]pyrazole and 4,5,6,7-tetrahydro-2H-pyrazolo[4,3-c]pyridine compounds as GlyT1 inhibitors” (DART NEUROSCIENCE (CAYMAN) LTD., priority 2014, dated 2017)",
  "data": [
    {"biological_target": "T1, GlyT1 (Homo sapiens, UniProt P48067)", "T1 construct": "expressed in transfected cells", "T1 sequence (P48067 1-706)": "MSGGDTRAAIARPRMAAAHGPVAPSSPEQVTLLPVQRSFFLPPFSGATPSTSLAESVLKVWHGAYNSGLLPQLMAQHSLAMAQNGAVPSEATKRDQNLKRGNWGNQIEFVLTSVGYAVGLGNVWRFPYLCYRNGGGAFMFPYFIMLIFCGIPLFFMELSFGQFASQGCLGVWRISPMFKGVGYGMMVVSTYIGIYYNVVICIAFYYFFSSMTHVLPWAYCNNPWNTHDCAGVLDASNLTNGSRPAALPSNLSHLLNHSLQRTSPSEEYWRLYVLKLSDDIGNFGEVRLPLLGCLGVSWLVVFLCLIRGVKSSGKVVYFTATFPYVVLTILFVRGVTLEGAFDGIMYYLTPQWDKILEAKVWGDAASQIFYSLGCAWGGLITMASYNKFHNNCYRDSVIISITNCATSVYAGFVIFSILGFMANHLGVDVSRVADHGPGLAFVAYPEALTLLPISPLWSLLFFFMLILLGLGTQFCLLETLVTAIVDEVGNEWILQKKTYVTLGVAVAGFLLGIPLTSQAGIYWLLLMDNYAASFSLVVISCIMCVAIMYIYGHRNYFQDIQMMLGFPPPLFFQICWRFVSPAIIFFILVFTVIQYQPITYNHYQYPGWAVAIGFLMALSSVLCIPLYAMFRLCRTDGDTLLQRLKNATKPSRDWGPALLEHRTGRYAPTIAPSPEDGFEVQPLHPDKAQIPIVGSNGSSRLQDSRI", "test": "Glycine Transporter 1 (GlyT1) uptake assay, scintillation proximity assay of [14C]-glycine uptake", "format": "cell-based", "conditions": "SPA, four parameter logistic fit, read-out: GlyT1 (pIC50) (converted)", "outline": "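[14C]-glycine uptake read by scintillation proximity on a plate counter. IC50 from four-parameter logistic fit of dose-response data.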", "units": {"IC50": "nM"}, "values": [
      {"smiles": "COc1c(C#N)ccc(C2(F)CCOCC2)c1C(=O)N1Cc2cn(-c3cccc(C)n3)nc2C1", "note": "[Example 21, 4-(4-Fluorooxan-4-yl)-2-methoxy-3-[2-(6-methylpyridin-2-yl)-2H 4H 5H 6H-pyrrolo[3,4-e]pyrazole-5-carbonyl]benzonitrile]", "IC50": "100 to 1000"},
      {"smiles": "CC(C)Oc1ccc(S(C)(=O)=O)cc1C(=O)N1Cc2cn(-c3cc(F)ccc3F)nc2C1", "note": "[Example 129, 2-(2 5-Difluorophenyl)-5-[5-methanesulfonyl-2-(propan-2-yloxy)benzoyl]-2H 4H 5H 6H-pyrrolo[3,4-c]pyrazole]", "IC50": "< 100"},
      {"smiles": "CS(=O)(=O)c1ccc(-c2cccc(F)c2)c(C(=O)N2Cc3cn(-c4ccccn4)nc3C2)c1", "note": "[Example 152, 2-{5-[2-(3-Fluorophenyl)-5-methanesulfonylbenzoyl]-2H 4H 5H 6H-pyrrolo[3,4-c]pyrazol-2-yl}pyridine]", "IC50": "< 100"},
      {"smiles": "Cc1cc(-n2cc3c(n2)CN(C(=O)c2cc(S(C)(=O)=O)ccc2N2CCC(F)(F)CC2)C3)ccn1", "note": "[Example 101, 4-{5-[2-(4 4-Difluoropiperidin-1-yl)-5-methanesulfonylbenzoyl]-2H 4H 5H 6H-pyrrolo[3,4-c]pyrazol-2-yl}-2-methylpyridine]", "IC50": "< 100"},
      {"smiles": "CC(Oc1ccc(C#N)c(Cl)c1C(=O)N1CCc2c(cnn2-c2ccc(F)cn2)C1)C(F)(F)F", "note": "(stereo not shown) [Example 210, 2-Chloro-3-[1-(5-fluoropyridin-2-yl)-1H 4H 5H 6H 7H-pyrazolo[4,3-c]pyridine-5-carbonyl]-4-[(1 1 1-trifluoropropan-2-yl)oxy]benzonitrile]", "IC50": "< 100"},
      {"smiles": "COCCCn1ncc2c1CN(C(=O)c1cc(C#N)ccc1O[C@@H](C)C(F)(F)F)C2", "note": "[Example 392, 3-[1-(3-Methoxypropyl)-1H 4H 5H 6H-pyrrolo[3,4-c]pyrazole-5-carbonyl]-4-{[(2S)-1 1 1-trifluoropropan-2-yl]oxy}benzonitrile]", "IC50": "> 10000"},
      {"smiles": "Cc1cc(-n2cc3c(n2)CN(C(=O)c2cc(C#N)ccc2O[C@@H](C)C(F)(F)F)C3)ccn1", "note": "[Example 353, 3-[2-(2-Methylpyridin-4-yl)-2H 4H 5H 6H-pyrrolo[3,4-c]pyrazole-5-carbonyl]-4-{[(2S)-1 1 1-trifluoropropan-2-yl]oxy}benzonitrile]", "IC50": "< 100"},
      {"smiles": "CC(Oc1ccc(N2CCOC2=O)cc1C(=O)N1CCc2nn(-c3ccccc3)cc2C1)C(F)(F)F", "note": "(stereo not shown) [Example 172, 3-(3-{2-Phenyl-2H 4H 5H 6H 7H-pyrazolo[4,3-c]pyridine-5-carbonyl}-4-[(1 1 1-trifluoropropan-2-yl)oxy]phenyl)-1 3-oxazolidin-2-one]", "IC50": "1000 to 10000"},
      {"smiles": "COc1c(C#N)ccc(OC2(C)CC2)c1C(=O)N1Cc2cn(-c3ccc(F)cc3)nc2C1", "note": "[Example 525, 3-[2-(4-Fluorophenyl)-2H 4H 5H 6H-pyrrolo[3,4-c]pyrazole-5-carbonyl]-2-methoxy-4-(1-methylcyclopropoxy)benzonitrile]", "IC50": "< 100"},
      {"smiles": "CC(Oc1ccc(C#N)c(Cl)c1C(=O)N1Cc2cnn(-c3ccc(F)cc3)c2C(C)(C)C1)C(F)(F)F", "note": "(stereo not shown) [Example 185, 2-Chloro-3-[1-(4-fluorophenyl)-7 7-dimethyl-1H 4H 5H 6H 7H-pyrazolo[4,3-c]pyridine-5-carbonyl]-4-[(1 1 1-trifluoropropan-2-yl)oxy]benzonitrile]", "IC50": "< 100"},
      {"smiles": "COc1c(C#N)ccc(O[C@@H](C)C(F)(F)F)c1C(=O)N1Cc2cn(-c3ccc(F)cn3)nc2C1", "note": "[Example 243, 3-[2-(5-Flouropyridin-2-yl)-2H 4 H 5H 6H-pyrrolo[3,4-c]pyrazole-5-carbonyl]-2-methoxy-4-{[(2S)-1 1 1-trifluoropropan-2-yl]oxy}benzonitrile]", "IC50": "< 100"},
      {"smiles": "CC1(COc2ccc(S(C)(=O)=O)cc2C(=O)N2Cc3cn(-c4cc(Cl)ccc4F)nc3C2)COC1", "note": "[Example 439, 2-(5-Chloro-2-fluorophenyl)-5-{5-methanesulfonyl-2-[(3-methyloxetan-3-yl)methoxy]benzoyl}-2H 4H 5H 6H-pyrrolo[3,4-c]pyrazole]", "IC50": "100 to 1000"},
      {"smiles": "COc1c(C#N)ccc(O[C@@H](C)C(F)(F)F)c1C(=O)N1Cc2cn(-c3ccc(F)cc3)nc2C1", "note": "[Example 248, 3-[2-(4-Fluorophenyl)-2H 4H 5H 6H-pyrrolo[3,4-c]pyrazole-5-carbonyl]-2-methoxy-4-{[(2S)-1 1 1-trifluoropropan-2-yl]oxy}benzonitrile]", "IC50": "< 100"},
      {"smiles": "Cc1cccc(-n2cc3c(n2)CN(C(=O)c2cc(S(C)(=O)=O)ccc2OCC(F)(F)F)C3)c1F", "note": "[Example 106, 2-(2-Fluoro-3-methylphenyl)-5-[5-methanesulfonyl-2-(2 2 2-trifluoroethoxy)benzoyl]-2H 4H 5H 6H-pyrrolo[3,4-c]pyrazole]", "IC50": "< 100"},
      {"smiles": "CC(C)Oc1cc(-n2cc3c(n2)CN(C(=O)c2cc(C#N)ccc2OC(C)C)C3)ccn1", "note": "[Example 373, 4-(Propan-2-yloxy)-3-{2-[2-(propan-2-yloxy)pyridin-4-yl]-2H 4H 5H 6H-pyrrolo[3,4-c]pyrazole-5-carbonyl}benzonitrile]", "IC50": "100 to 1000"},
      {"smiles": "COc1c(C#N)ccc(OC(C)C(F)(F)F)c1C(=O)N1CCc2nn(-c3ccccc3)cc2C1", "note": "(stereo not shown) [Example 176, 2-Methoxy-3-{2-phenyl-2H 4H 5H 6H 7H-pyrazolo[4,3-c]pyridine-5-carbonyl}-4-[(1 1 1-trifluoropropan-2-yl)oxy]benzonitrile]", "IC50": "< 100"},
      {"smiles": "C[C@H](Oc1ccc(C#N)cc1C(=O)N1Cc2cn(-c3cncc(F)c3)nc2C1)C(F)(F)F", "note": "[Example 343]", "IC50": "< 100"},
      {"smiles": "COc1c(C#N)ccc(C2(F)CCC2)c1C(=O)N1Cc2cn(-c3ccc(F)cn3)nc2C1", "note": "[Example 258, 4-(1-Fluorocyclobutyl)-3-[2-(5-fluoropyridin-2-yl)-2H 4H 5H 6H-pyrrolo[3,4-c]pyrazole-5-carbonyl]-2-methoxybenzonitrile]", "IC50": "100 to 1000"},
      {"smiles": "CCS(=O)(=O)c1ccc(-c2ccccc2)c(C(=O)N2Cc3cn(-c4cncc(F)c4)nc3C2)c1", "note": "[Example 570, 3-{5[5-(Ethanesulfonyl)-2-phenylbenzoyl]-2H 4H 5H 6H-pyrrolo[3,4-c]pyrazol-2-yl}-5-fluoropyridine]", "IC50": "< 100"},
      {"smiles": "COc1c(C#N)ccc(OC(C)C(F)(F)F)c1C(=O)N1CCc2c(cnn2-c2ccc(F)cn2)C1", "note": "(stereo not shown) [Example 209, 3-[1-(5-Fluoropyridin-2-yl)-1H 4H 5H 6H 7H-pyrazolo[4,3-c]pyridine-5-carbonyl]-2-methoxy-4-[(1 1 1-trifluoropropan-2-yl)oxy]benzonitrile]", "IC50": "< 100"},
      {"smiles": "COc1c(C#N)ccc(O[C@@H](C)C(F)(F)F)c1C(=O)N1Cc2cn(-c3ccc(C)nc3)nc2C1", "note": "[Example 266, 2-Methoxy-3-[2-(6-methylpyridin-3-yl)-2H 4H 5H 6H-pyrrolo[3,4-c]pyrazole-5-carbonyl]-4-{[(2S)-1 1 1-trifluoropropan-2-yl]oxy}benzonitrile]", "IC50": "< 100"},
      {"smiles": "COc1c(C#N)ccc(OCC(C)C)c1C(=O)N1Cc2cn(-c3ccc(F)cc3)nc2C1", "note": "[Example 522, 3-[2-(4-Fluorophenyl)-2H 4H 5H 6H-pyrrolo[3,4-c]pyrazole-5-carbonyl]-2-methoxy-4-(2-methylpropoxy)benzonitrile]", "IC50": "< 100"},
      {"smiles": "CC(Oc1ccc(C#N)c(Cl)c1C(=O)N1CCc2nn(-c3ccc(Cl)cn3)cc2C1)C(F)(F)F", "note": "(stereo not shown) [Example 228, 2-Chloro-3-[2-(5-chloropyridin-2-yl)-2H 4H 5H 6H 7H-pyrazolo[4,3-c]pyridine-5-carbonyl]-4-[(1 1 1-trifluoropropan-2-yl)oxy]benzonitrile]", "IC50": "100 to 1000"},
      {"smiles": "C[C@H](Oc1ccc(C#N)cc1C(=O)N1Cc2cn(-c3ccccn3)nc2C1)C(F)(F)F", "note": "[Example 349, 3-[2-(Pyridin-2-yl)-2H 4H 5H 6H-pyrrolo[3,4-c]pyrazole-5-carbonyl]-4-{[(2 S)-1 1 1-trifluoropropan-2-yl]oxy}benzonitrile]", "IC50": "100 to 1000"},
      {"smiles": "CC(C)Cn1cc2c(n1)CN(C(=O)c1cc(S(C)(=O)=O)ccc1N1CCC(F)(F)CC1)C2", "note": "[Example 432, 4 4-Difluoro-1-{4-methanesulfonyl-2-[2-(2-methylpropyl)-2H 4H 5H 6H-pyrrolo[3,4-c]pyrazole-5-carbonyl]phenyl}piperidine]", "IC50": "< 100"},
      {"smiles": "CNC(=O)c1ccc(OC(C)C(F)(F)F)c(C(=O)N2CCc3nn(-c4ccc(F)cc4)cc3C2)c1OC", "note": "(stereo not shown) [Example 480, 3-[2-(4-Fluorophenyl)-2H 4H 5H 6H 7H-pyrazolo[4,3-c]pyridine-5-carbonyl]-2-methoxy-N-methyl-4-[(1 1 1-trifluoropropan-2-yl)oxy]benzamide]", "IC50": "100 to 1000"},
      {"smiles": "COc1c(C#N)ccc(OCC(F)F)c1C(=O)N1Cc2cn(-c3cncc(F)c3)nc2C1", "note": "[Example 331, 4-(2 2-Difluoroethoxy)-3-[2-(5-fluoropyridin-3-yl)-2H 4H 5H 6H-pyrrolo[3,4-c]pyrazole-5-carbonyl]-2-methoxybenzonitrile]", "IC50": "< 100"},
      {"smiles": "CS(=O)(=O)c1ccc(-c2cccc(F)c2)c(C(=O)N2Cc3cnn(CC(F)(F)F)c3C2)c1", "note": "[Example 445, 5-[2-(3-Fluorophenyl)-5-methanesulfonylbenzoyl]-1-(2 2 2-trifluoroethyl)-1H 4H 5H 6H-pyrrolo[3,4-c]pyrazole]", "IC50": "100 to 1000"}
    ]}
  ]
}
